biological target: SARS-CoV M^pro (Severe acute respiratory syndrome-related coronavirus, UniProt P0C6X7); experiment: biochemical; format: biochemical

Row | Structure (SMILES) | IC50 [nM]
1 | O=C(/C=C/c1ccccc1)N[C@@H](Cc1ccccc1)C(=O)N[C@@H](C[C@@H]1CCNC1=O)C(=O)C(=O)NCc1ccccc1 [11a, (S)-N-benzyl-3-((S)-2-cinnamamido-3-phenylpropanamido)-2-oxo-4-((S)-2-oxopyrrolidin-3-yl)butanamide] | 1950 ± 240
2 | CC(C)(C)OC(=O)N[C@@H](C[C@@H]1CCNC1=O)C(=O)C(=O)NCc1ccccc1 [11f, tert-Butyl ((S)-4-(benzylamino)-3,4-dioxo-1-((S)-2-oxopyrrolidin-3-yl)butan-2-yl)carbamate] | > 50000
3 | O=C(/C=C/c1ccccc1)N[C@@H](Cc1ccc(F)cc1)C(=O)N[C@@H](C[C@@H]1CCNC1=O)C(=O)C(=O)NCc1ccccc1 [11m, (S)-N-benzyl-3-((S)-2-cinnamamido-3-(4-fluorophenyl)propanamido)-2-oxo-4-((S)-2-oxopyrrolidin-3-yl)butanamide] | > 50000
4 | CC(C)C[C@H](NC(=O)/C=C/c1ccccc1)C(=O)N[C@@H](C[C@@H]1CCNC1=O)C(=O)C(=O)NCc1ccccc1 [11n, (S)-N-((S)-4-(benzylamino)-3,4-dioxo-1-((S)-2-oxopyrrolidin-3-yl)butan-2-yl)-2-cinnamamido-4-methylpentanamide] | 330 ± 40
5 | CCCC[C@H](NC(=O)/C=C/c1ccccc1)C(=O)N[C@@H](C[C@@H]1CCNC1=O)C(=O)C(=O)NCc1ccccc1 [11o, (S)-N-((S)-4-(benzylamino)-3,4-dioxo-1-((S)-2-oxopyrrolidin-3-yl)butan-2-yl)-2-cinnamamidohexanamide] | 8500 ± 3710
6 | C#CC[C@H](NC(=O)/C=C/c1ccccc1)C(=O)N[C@@H](C[C@@H]1CCNC1=O)C(=O)C(=O)NCc1ccccc1 [11p, (S)-N-((S)-4-(benzylamino)-3,4-dioxo-1-((S)-2-oxopyrrolidin-3-yl)butan-2-yl)-2-cinnamamidopent-4-ynamide] | 10700 ± 7340
7 | O=C(/C=C/c1ccccc1)N[C@H](C(=O)N[C@@H](C[C@@H]1CCNC1=O)C(=O)C(=O)NCc1ccccc1)C1CC1 [11q, (S)-N-benzyl-3-((S)-2-cinnamamido-2-cyclopropylacetamido)-2-oxo-4-((S)-2-oxopyrrolidin-3-yl)butanamide] | 6270 ± 2870
8 | O=C(/C=C/c1ccccc1)N[C@@H](CC1CCCCC1)C(=O)N[C@@H](C[C@@H]1CCNC1=O)C(=O)C(=O)NCc1ccccc1 [11r, (S)-N-benzyl-3-((S)-2-cinnamamido-3-cyclohexylpropanamido)-2-oxo-4-((S)-2-oxopyrrolidin-3-yl)butanamide] | 710 ± 360
9 | O=C(/C=C/c1ccccc1)N[C@@H](CC1CC1)C(=O)N[C@@H](C[C@@H]1CCNC1=O)C(=O)C(=O)NCc1ccccc1 [11s, (S)-N-benzyl-3-((S)-2-cinnamamido-3-cyclopropylpropanamido)-2-oxo-4-((S)-2-oxopyrrolidin-3-yl)butanamide] | 240 ± 80
10 | O=C(/C=C/c1ccccc1)N[C@@H](CC1CCC1)C(=O)N[C@@H](C[C@@H]1CCNC1=O)C(=O)C(=O)NCc1ccccc1 [11t, (S)-N-benzyl-3-((S)-2-cinnamamido-3-cyclobutylpropanamido)-2-oxo-4-((S)-2-oxopyrrolidin-3-yl)butanamide] | 1440 ± 400
11 | O=C(/C=C/c1ccccc1)N[C@@H](CC1CCCC1)C(=O)N[C@@H](C[C@@H]1CCNC1=O)C(=O)C(=O)NCc1ccccc1 [11u, (S)-N-benzyl-3-((S)-2-cinnamamido-3-cyclopentylpropanamido)-2-oxo-4-((S)-2-oxopyrrolidin-3-yl)butanamide] | 1270 ± 340
